We go through 2 compounds from patent publication US20130266629A1, “MEDICAL DEVICE HAVING A SURFACE COMPRISING ANTIMICROBIAL METAL” (DENTSPLY INTERNATIONAL INC., priority 2012, published 2013).

Each structure is given as a SMILES string.

Experiment [1] has as its system S. sanguinis. Put plainly: Minimum Inhibitory Concentration, fivefold dilution, no visual growth. It counts as cell-based. As to conditions: 24 hours at 35±2° C. The protocol:
(§1) Streak plates and characterization by gram-staining were done. MRSA and PA01 were grown on Tryptic Soy agar (TSA) plates and S. sanguinis on horse blood plates for up to 24 hours whereas P. gingivalis was grown between 4 and 5 days on Fastidious Anaerobic agar (FAA) plates. Fivefold dilution in at least five steps of gallium nitrate (Ga(NO3)3) or bismuth chloride (BiCl3) was done. Bismuth salt had to be suspended in DMSO in order to enable salt to dissolve in culture media.
(§2) Equal amounts of bacterial solution and antimicrobial salt (in fivefold dilution) were mixed and incubated at 35±2° C.: MRSA, PA01, and S. sanguinis for 24 hours and P. gingivalis for […]. After incubation, the concentration where no visual growth could be detected was documented.

The test system of experiment [2] is P. gingivalis. Described as above. Type of experiment: cell-based. The following applies: 35±2° C. The protocol: as §1, §2
Experiment [3] deals with Pseudomonas aeruginosa. As to conditions: Kaneko et al. (2007); cited from earlier work.
The subject of experiment [4] is Francisella novicida. As to conditions: Olakanmi et al (2010); cited from earlier work.
The test system of experiment [5] is PA01. Kind of experiment: Minimum Inhibitory Concentration, fivefold dilution, no visual growth. The following applies: PA01, 24 hours at 35±2° C. It counts as cell-based, Pseudomonas aeruginosa. The protocol: as §1, §2
Experiment [6] has as its system MRSA. Type of experiment: cell-based, Staphylococcus aureus. As to conditions: 24 hours at 35±2° C.

For `O=[N+]([O-])[O-].O=[N+]([O-])[O-].O=[N+]([O-])[O-].[Ga+3]` [Ga(NO3)3, gallium nitrate], the “Minimum Inhibitory Concentration (MIC)” value in experiment [1] was 1000 µg/mL; in experiment [2] it was 40 µg/mL; in experiment [5], 200 µg/mL; in experiment [6] it was 1000 µg/mL. Besides, the “growth of Pseudomonas aeruginosa in batch cultures” value in experiment [3] was “inhibits growth”. Besides, the “growth of Francisella novicida” value in experiment [4] was “inhibited the growth”.
Consider `[Cl][Bi]([Cl])[Cl]` [BiCl3, bismuth chloride], for which the “Minimum Inhibitory Concentration (MIC)” value in experiment [1] is 40 µg/mL; in experiment [2], 1000 µg/mL.
